According to patent US5376643A, “Composition for application to hair” (priority 1986, dated 1994):
Where two headings read alike, the source gives them in different places.

Assays:
[1] = in words; cited from earlier work
[2] = in words; cited from earlier work; remark: listed apart in the source
grayed hair [3] = assay: Half-Head technique, two groups of 20 persons: preventing graying of the hair and restoring grayed hair (Example 6 procedure); format: in vivo, human (men and women); settings: in words; hair creams
From the text: Two groups each of which comprised 20 persons (50 to 60 years old; comprising men and women) were selected and the hair tonic Samples (S-I and S-II) were separately applied to scalp of each person of one group in accordance with Half-Head technique wherein the hair tonics I and II were separately applied to the right half of the scalp and the left half thereof, on the other hand Samples (S-II and S-III) were likewise separately applied to each person of the other group in the same manner twice a day (in the morning and at night) for 3 months.

guinea pig [4] = assay: Phototoxicity (guinea pig); format: in vivo
human = settings: in vivo
guinea pig [5] = settings: in vivo
[6] = in vivo
guinea pig [7] = assay: Skin Sensitization (guinea pig); format: in vivo
guinea pig [8] = assay: Photosensitization (guinea pig); format: in vivo
scalp [9] = settings: in vivo
From the text: (§1) Twenty statistically equivalent persons (comprising men and women aged 30 to 60 years) were selected and Samples of the hair tonics were applied to their scalps in accordance with the Half-Head technique, in which Samples were separately applied to the right and left half portions of the scalp, twice a day (in the morning and at night) for three months. The effects of preventing graying of the hair and restoring grayed hair to its natural color were estimated by comparing the conditions of the portions observed before and after the application of Samples.

grayed hair [10] = assay: Half-Head technique: preventing graying of the hair and restoring grayed hair to its natural color (Example 1 procedure); format: in vivo, human (men and women); settings: for Comp. Sample is better / Comp. Sample is somewhat better / Same / This Invention is better / This Invention is somewhat better: 3 months; for amount of grayed hair / effect of preventing graying of the hair and restoring grayed hair to its natural color / effect of preventing graying and restoring grayed hair / effect on graying, compared with Example 12 / effect of preventing graying and restoring grayed hair, compared with Example 2: in words; for amount of grayed hair / effect of preventing graying of the hair and restoring grayed hair to its natural color: compared with comparative sample free from the component; for effect of preventing graying and restoring grayed hair: hair tonic; for effect on graying, compared with Example 12: hair tonics, used in place of FAD-2Na; for effect of preventing graying and restoring grayed hair, compared with Example 2: hair cream, used instead of N^6,O^2'-DScAMP-Na
From the text: The effectiveness of the hair tonics thus prepared were estimated in the following manner: Twenty statistically equivalent persons (comprising men and women aged 30 to 60 years) were selected and Samples of the hair tonics were applied to their scalps in accordance with the Half-Head technique, in which Samples were separately applied to the right and left half portions of the scalp, twice a day (in the morning and at night) for three months. The effects of preventing graying of the hair and restoring grayed hair to its natural color were estimated by comparing the conditions of the portions observed before and after the application of Samples.

rabbit = settings: in vivo
[11] = Acute Oral Toxicity (rat); settings: in vivo
[12] = Safety examination (overall, in words); settings: same procedures as in Example 1
scalp [13] = assay: Condition of the scalp during and after use for 3 months
From the text: as §1

[14] = Table III, of 20 persons, hair tonic with 0.05% vs tonic without, twice a day
[15] = Table XXV, hair tonic with 0.1% vs tonic without
[16] = Table X, hair cream with 0.8% vs cream without
[17] = Table VIII, milky lotion with 0.2% vs lotion without

For `C=C1CC[C@H](O)C/C1=C/C=C1\CCC[C@]2(C)[C@@H]([C@H](C)CCCC(C)C)CC[C@@H]12` [vitamin D3], the side-effects [1] is given as “tend to cause side-effectssuch as hypervitaminosis D or hypercalcemia” and the “stability in the air” value [2] is given as “extremely unstable in the air and easily undergo oxidation”.
With `Cc1cc2nc3c(=O)[nH]c(=O)nc-3n(C[C@H](O)[C@H](O)[C@H](O)COP(=O)(O)OP(=O)(O)OC[C@H]3O[C@@H](n4cnc5c(N)ncnc54)[C@H](O)[C@@H]3O)c2cc1C` [FAD, flavin adenine dinucleotide] the “effect on graying, compared with Example 7” value (grayed hair [3]) was “approximately the same results as those in Example 7”.
In the case of `CCCC(=O)Nc1ncnc2c1ncn2[C@@H]1O[C@@H]2COP(=O)(O)O[C@H]2[C@H]1OC(=O)CCC` [N^6,O^2'-DBcAMP-Na], the Phototoxicity (guinea pig [4]) is reported as “negative”, the “Human Patch Test” value (human) is reported as “non-irritant” and the “Primary Skin Irritation” value (guinea pig [5]) is reported as “non-irritant”. For the same molecule, the safety [6] was “extremely high”, the “Skin Sensitization” value (guinea pig [7]) was “negative” and the Photosensitization (guinea pig [8]) was “negative”. For the same molecule, the “abnormality in the condition of the scalp” value (shortened to “abnormality in the condition”) (scalp [9]) was “No abnormality was observed”, the “Comp. Sample is better” value (grayed hair [10]; [14]) was 0 and the “Comp. Sample is somewhat better” value (grayed hair [10]; [14]) was 0. The Same (grayed hair [10]; [14]) was 2, the “This Invention is better” value (grayed hair [10]; [14]) was 11 and the “This Invention is somewhat better” value (grayed hair [10]; [14]) was 7. The “amount of grayed hair” value (grayed hair [10]) was “reduced the amount of grayed hair more effectively than the comparative hair tonic”, the “effect of preventing graying of the hair and restoring grayed hair to its natural color” value (“effect … to its natural color” below) (grayed hair [10]) was “remarkable effect” and the “effect of preventing graying and restoring grayed hair” value (grayed hair [10]; amount of 0.005%) was “little effect”. For the same molecule, the “effect of preventing graying and restoring grayed hair” value (grayed hair [10]; amount of 0.01) was “effective”, the “Ocular-mucous Membrane Irritation” value (rabbit) was “non-irritant” and the LD50 [11] was no less than 5000 mg/kg.
With `CCCCCC(=O)Nc1ncnc2c1ncn2C1OC2COP(=O)([O-])OC2C1O.[Na+]` (stereo not drawn) [N^6-MHcAMP-Na] the “effect on graying, compared with Example 12” value (grayed hair [10]) was “substantially the same effect as in Example 12”.
In the case of `CCCCCCCC(=O)OC1C2OP(=O)([O-])OCC2OC1n1cnc2c(N)ncnc21.[Na+]` (stereo not drawn) [O^2'-MOcAMP-Na], the “effect on graying, compared with Example 12” value (grayed hair [10]) is reported as “substantially the same effect as in Example 12”.
For `Nc1ncnc2c1nc(O)n2[C@@H]1O[C@@H]2COP(=O)(O)O[C@H]2[C@H]1O` [8-OHcAMP-Na], the “effect of preventing graying and restoring grayed hair, compared with Example 2” value (“effect … compared with Example 2” for short) (grayed hair [10]) was “Substantially the same excellent effect as in Example 2”.
In the case of `Cc1cc2nc3c(=O)[nH]c(=O)nc-3n(C[C@H](O)[C@H](O)[C@H](O)COP(=O)(O)OP(=O)(O)OC[C@H]3O[C@@H](n4cnc5c(N)ncnc54)[C@H](O)[C@@H]3O)c2cc1C` [FAD-2Na], the safety [12] is reported as “had no problems such as skin irritation and thus had extremely high safety”, the “Comp. Sample is better” value (grayed hair [10]; [15]) is reported as 0 and the “Comp. Sample is somewhat better” value (grayed hair [10]; [15]) is reported as 0. The Same (grayed hair [10]; [15]) was 4, the “This Invention is better” value (grayed hair [10]; [15]) was 8 and the “This Invention is somewhat better” value (grayed hair [10]; [15]) was 8.
With `CCCC(=O)Nc1ncnc2c1ncn2[C@@H]1O[C@@H]2COP(=O)(O)O[C@H]2[C@H]1O` [N^6-MBcAMP-Na] the “abnormality in the condition” value (scalp [13]) was “no abnormality was observed”, the safety [12] was “had no problems such as skin irritation and thus had extremely high safety” and the “Comp. Sample is better” value (grayed hair [10]; [16]) was 0. The “Comp. Sample is somewhat better” value (grayed hair [10]; [16]) was 0, the Same (grayed hair [10]; [16]) was 4 and the “This Invention is better” value (grayed hair [10]; [16]) was 9. For the same molecule, the “This Invention is somewhat better” value (grayed hair [10]; [16]) was 7, the “amount of grayed hair” value (grayed hair [10]) was “the amount of grayed hair was reduced” and the “effect … to its natural color” value (grayed hair [10]) was “excellent effect”.
For `CCCCCCCCC(=O)O` [nonanoic acid], the “effect on graying, compared with Example 7” value (grayed hair [3]) was “approximately the same results as in Example 7”.
With `Nc1ncnc2c1nc(Cl)n2[C@@H]1O[C@@H]2COP(=O)(O)O[C@H]2[C@H]1O` [8-ClcAMP-Na] the “effect … compared with Example 2” value (grayed hair [10]) was “Substantially the same excellent effect as in Example 2”.
For `Nc1ncnc2c1nc(S)n2[C@@H]1O[C@@H]2COP(=O)(O)O[C@H]2[C@H]1O` [8-SHcAMP-Na], the “effect … compared with Example 2” value (grayed hair [10]) was “Substantially the same excellent effect as in Example 2”.
In the case of `Nc1ncnc2c1nc(Br)n2[C@@H]1O[C@@H]2COP(=O)(O)O[C@H]2[C@H]1O` [8-BrcAMP-Na], the “effect … compared with Example 2” value (grayed hair [10]) is reported as “Substantially the same excellent effect as in Example 2”.
With `CCCC(=O)O[C@@H]1[C@@H]2OP(=O)(O)OC[C@H]2O[C@H]1n1c(Br)nc2c(N)ncnc21` [O^2'-MB-8BrcAMP-Na] the “effect … compared with Example 2” value (grayed hair [10]) was “Substantially the same excellent effect as in Example 2”.
With `CCCCCCCCCCCOCC(COCCCCCCCCCCC)OCCCCCCCCCCC` [triundecyl glycerylether] the “effect on graying, compared with Example 7” value (grayed hair [3]) was “approximately the same results as in Example 7”.
For `Nc1ncnc2c1nc(Sc1ccc(Cl)cc1)n2[C@@H]1O[C@@H]2COP(=O)(O)O[C@H]2[C@H]1O` [8-C1PhScAMP-Na], the “effect … compared with Example 2” value (grayed hair [10]) was “Substantially the same excellent effect as in Example 2”.
For `CC(=O)Nc1ncnc2c1nc(N)n2C1OC2COP(=O)([O-])OC2C1OC(C)=O.[Na+]` (stereo not drawn) [N^6,O^2'-DA-8-NH2 cAMP-Na], the “effect … compared with Example 2” value (grayed hair [10]) was “Substantially the same excellent effect as in Example 2”.
With `Nc1ncnc2c1ncn2[C@@H]1O[C@@H]2COP(=O)([O-])O[C@H]2[C@H]1OC(=O)CCC(=O)O.[Na+]` [O^2'-MScAMP-Na] the “abnormality in the condition” value (scalp [13]) was “no abnormality was observed”, the safety [12] was “had no problems such as skin irritation and thus had extremely high safety” and the “Comp. Sample is better” value (grayed hair [10]; [17]) was 0. For the same molecule, the “Comp. Sample is somewhat better” value (grayed hair [10]; [17]) was 0, the Same (grayed hair [10]; [17]) was 3 and the “This Invention is better” value (grayed hair [10]; [17]) was 10. The “This Invention is somewhat better” value (grayed hair [10]; [17]) was 7, the “amount of grayed hair” value (grayed hair [10]) was “the amount of grayed hair was reduced” and the “effect … to its natural color” value (grayed hair [10]) was “excellent effect”.
For `CCCC(=O)O[C@@H]1[C@@H]2OP(=O)(O)OC[C@H]2O[C@H]1n1cnc2c(N)ncnc21` [O^2 -MBcAMP-Na], the “effect on graying, compared with Example 7” value (grayed hair [3]) was “approximately the same results as those in Example 7”.
